Results taken from patent US6355799B1, “Substituted benzene compounds, process for their preparation, and herbicidal and defoliant compositions containing them” (ISK Americas Incorporated, priority 1997, dated 2002).

Legend:
Type in all cases: in vivo
[1] = system: green foxtail (Setaria viridis, SETVI); experiment: Post-emerge test, greenhouse herbicide activity screening; conditions: 14 days after application; for SETVI phytotoxicity rating: post-emerge, rating scale 0-100; for Post-emerge Herbicidal Activity, phytotoxicity rating SETVI: rating scale 0-100 (0 no damage, 100 complete death)
Outline: (§1)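 Compounds in acetone were track-sprayed at 15-1000 g ai/ha (187 l/ha) on sandy loam pots: pre-emerge one day after seeding, post-emerge at 2-3 leaf stage with 0.25% v/v non-ionic surfactant. Phytotoxicity was rated 14 days later on a 0 (no damage) to 100 (complete death) scale.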

[2] = system: barnyardgrass (Echinochloa crus-galli, ECHCG); experiment: as above; conditions: 14 days after application; for ECHCG phytotoxicity rating: post-emerge, rating scale 0-100; for Post-emerge Herbicidal Activity, phytotoxicity rating ECHCG: rating scale 0-100 (0 no damage, 100 complete death)
Outline: as §1

[3] = system: sicklepod (Cassia obtusifolia, CASOB); experiment: as above; conditions: 14 days after application; for CASOB phytotoxicity rating: post-emerge, rating scale 0-100; for Post-emerge Herbicidal Activity, phytotoxicity rating CASOB: rating scale 0-100 (0 no damage, 100 complete death)
Outline: as §1

[4] = system: velvetleaf (Abutilon theophrasti, ABUTH); experiment: as above; conditions: 14 days after application; for ABUTH phytotoxicity rating: post-emerge, rating scale 0-100; for Post-emerge Herbicidal Activity, phytotoxicity rating ABUTH: rating scale 0-100 (0 no damage, 100 complete death)
Outline: as §1

[5] = system: johnsongrass (Sorghum halepense, SORHA); experiment: as above; conditions: 14 days after application; for SORHA phytotoxicity rating: post-emerge, rating scale 0-100; for Post-emerge Herbicidal Activity, phytotoxicity rating SORHA: rating scale 0-100 (0 no damage, 100 complete death)
Outline: as §1

[6] = system: large crabgrass (Digitaria sanguinalis, DIGSA); experiment: as above; conditions: 14 days after application; for DIGSA phytotoxicity rating: post-emerge, rating scale 0-100; for Post-emerge Herbicidal Activity, phytotoxicity rating DIGSA: rating scale 0-100 (0 no damage, 100 complete death)
Outline: as §1

[7] = system: ivyleaf morningglory (Ipomoea hederacea, IPOHE); experiment: as above; conditions: 14 days after application; for IPOHE phytotoxicity rating: post-emerge, rating scale 0-100; for Post-emerge Herbicidal Activity, phytotoxicity rating IPOHE: rating scale 0-100 (0 no damage, 100 complete death)
Outline: as §1

[8] = system: lambsquarters (Chenopodium album, CHEAL); experiment: as above; conditions: 14 days after application; for CHEAL phytotoxicity rating: post-emerge, rating scale 0-100; for Post-emerge Herbicidal Activity, phytotoxicity rating CHEAL: rating scale 0-100 (0 no damage, 100 complete death)
Outline: as §1

[9] = system: redroot pigweed (Amaranthus retroflexus, AMARE); experiment: as above; conditions: 14 days after application; for AMARE phytotoxicity rating: post-emerge, rating scale 0-100; for Post-emerge Herbicidal Activity, phytotoxicity rating AMARE: rating scale 0-100 (0 no damage, 100 complete death)
Outline: as §1

[10] = system: common ragweed (Ambrosia artemisizfolia L., AMBEL); experiment: as above; conditions: 14 days after application; for AMBEL phytotoxicity rating: post-emerge, rating scale 0-100; for Post-emerge Herbicidal Activity, phytotoxicity rating AMBEL: rating scale 0-100 (0 no damage, 100 complete death)
Outline: as §1

[11] = system: field corn (Zea mays L., var. Dekalb 535, CORN); experiment: Post-emerge test, crop safety; conditions: 14 days after application; for CORN phytotoxicity rating (crop damage): post-emerge, rating scale 0-100; for Post-emerge phytotoxicity rating CORN (crop damage): rating scale 0-100 (0 no damage, 100 complete death)
Outline: (§2)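 Compounds in acetone were track-sprayed at 187 l/ha, 15–1000 g ai/ha, onto sandy loam pots. Pre-emerge seeds were sown one day before spraying, with surface watering afterwards. Post-emerge plants were at the 2–3 leaf stage and sprayed with 0.25% v/v non-ionic surfactant. Injury was rated 0–100 at 14 days.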

[12] = system: upland rice (Oryza sp., var. Tebonnet, RICE); experiment: Post-emerge test, crop safety; conditions: 14 days after application; for RICE phytotoxicity rating (crop damage): post-emerge, rating scale 0-100; for Post-emerge phytotoxicity rating RICE (crop damage): rating scale 0-100 (0 no damage, 100 complete death)
Outline: as §2

[13] = system: field corn (Zea mays L., var. Dekalb 535, CORN); experiment: Pre-emerge test, crop safety; conditions: pre-emerge, 14 days after application; for phytotoxicity rating CORN (crop damage): scale 0-100; for phytotoxicity rating CORN: rating scale 0-100
Outline: as §1

[14] = system: upland rice (Oryza sp., var. Tebonnet, RICE); experiment: Pre-emerge test, crop safety; conditions: pre-emerge, 14 days after application; for phytotoxicity rating RICE (crop damage): scale 0-100; for phytotoxicity rating RICE: rating scale 0-100
Outline: as §1

[15] = system: green foxtail (Setaria viridis, SETVI); experiment: Pre-emerge test, greenhouse herbicide activity screening; conditions: pre-emerge, 14 days after application
Outline: as §2

[16] = system: barnyardgrass (Echinochloa crus-galli, ECHCG); experiment: as above; conditions: pre-emerge, 14 days after application
Outline: as §2

[17] = system: sicklepod (Cassia obtusifolia, CASOB); experiment: as above; conditions: pre-emerge, 14 days after application
Outline: as §2

[18] = system: velvetleaf (Abutilon theophrasti, ABUTH); experiment: as above; conditions: pre-emerge, 14 days after application
Outline: as §2

[19] = system: johnsongrass (Sorghum halepense, SORHA); experiment: as above; conditions: pre-emerge, 14 days after application
Outline: as §2

[20] = system: large crabgrass (Digitaria sanguinalis, DIGSA); experiment: as above; conditions: pre-emerge, 14 days after application
Outline: as §2

[21] = system: ivyleaf morningglory (Ipomoea hederacea, IPOHE); experiment: as above; conditions: pre-emerge, 14 days after application
Outline: as §2

[22] = system: lambsquarters (Chenopodium album, CHEAL); experiment: as above; conditions: pre-emerge, 14 days after application
Outline: as §2

[23] = system: redroot pigweed (Amaranthus retroflexus, AMARE); experiment: as above; conditions: pre-emerge, 14 days after application
Outline: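 Herbicidal damage is scored 0 (none) to 100 (complete plant death) two weeks after a simulated field spray. Rates span 15–1000 g ai/ha, delivered in acetone at 187 l/ha. For post-emergence treatments, plants have 2–3 leaves and the spray carries 0.25% v/v non-ionic surfactant.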

[24] = 250 g ai/ha, rating scale 0-100

## CCSCC(=O)Nc1c(OC)c(Cl)cc(F)c1-n1c(=O)cc(C(F)(F)F)n(C)c1=O [2-172]
[1]; 63 g ai/ha
  SETVI phytotoxicity rating: 0
[1]; 250 g ai/ha
  SETVI phytotoxicity rating: 10
[2]; 63 g ai/ha
  ECHCG phytotoxicity rating: 0
[2]; 250 g ai/ha
  ECHCG phytotoxicity rating: 0
[3]; 63 g ai/ha
  CASOB phytotoxicity rating: 50
[3]; 250 g ai/ha
  CASOB phytotoxicity rating: 90
[4]; 63 g ai/ha
  ABUTH phytotoxicity rating: 60
[4]; 250 g ai/ha
  ABUTH phytotoxicity rating: 100
[5]; 63 g ai/ha
  SORHA phytotoxicity rating: 0
[5]; 250 g ai/ha
  SORHA phytotoxicity rating: 0
[6]; 63 g ai/ha
  DIGSA phytotoxicity rating: 0
[6]; 250 g ai/ha
  DIGSA phytotoxicity rating: 0
[7]; 63 g ai/ha
  IPOHE phytotoxicity rating: 90
[7]; 250 g ai/ha
  IPOHE phytotoxicity rating: 100
[8]; 63 g ai/ha
  CHEAL phytotoxicity rating: 35
[8]; 250 g ai/ha
  CHEAL phytotoxicity rating: 60
[9]; 63 g ai/ha
  AMARE phytotoxicity rating: 60
[9]; 250 g ai/ha
  AMARE phytotoxicity rating: 60
[10]; 63 g ai/ha
  AMBEL phytotoxicity rating: 30
[10]; 250 g ai/ha
  AMBEL phytotoxicity rating: 80
[11]; 63 g ai/ha
  CORN phytotoxicity rating (crop damage): 5
[11]; 250 g ai/ha
  CORN phytotoxicity rating (crop damage): 10
[12]; 63 g ai/ha
  RICE phytotoxicity rating (crop damage): 0
[12]; 250 g ai/ha
  RICE phytotoxicity rating (crop damage): 10
[13]; 63 g ai/ha
  phytotoxicity rating CORN (crop damage): 0
[13]; 250 g ai/ha
  phytotoxicity rating CORN (crop damage): 10
[14]; 63 g ai/ha
  phytotoxicity rating RICE (crop damage): 10
[14]; 250 g ai/ha
  phytotoxicity rating RICE (crop damage): 50
[15]; 63 g ai/ha, scale 0-100
  phytotoxicity rating SETVI: 20
[15]; 250 g ai/ha, scale 0-100
  phytotoxicity rating SETVI: 65
[16]; 63 g ai/ha, scale 0-100
  phytotoxicity rating ECHCG: 0
[16]; 250 g ai/ha, scale 0-100
  phytotoxicity rating ECHCG: 60
[17]; 63 g ai/ha, scale 0-100
  phytotoxicity rating CASOB: 20
[17]; 250 g ai/ha, scale 0-100
  phytotoxicity rating CASOB: 80
[18]; 63 g ai/ha, scale 0-100
  phytotoxicity rating ABUTH: 90
[18]; 250 g ai/ha, scale 0-100
  phytotoxicity rating ABUTH: 100
[19]; 63 g ai/ha, scale 0-100
  phytotoxicity rating SORHA: 0
[19]; 250 g ai/ha, scale 0-100
  phytotoxicity rating SORHA: 40
[20]; 63 g ai/ha, scale 0-100
  phytotoxicity rating DIGSA: 20
[20]; 250 g ai/ha, scale 0-100
  phytotoxicity rating DIGSA: 100
[21]; 63 g ai/ha, scale 0-100
  phytotoxicity rating IPOHE: 60
[21]; 250 g ai/ha, scale 0-100
  phytotoxicity rating IPOHE: 95
[22]; 63 g ai/ha, scale 0-100
  phytotoxicity rating CHEAL: 30
[22]; 250 g ai/ha, scale 0-100
  phytotoxicity rating CHEAL: 100
[23]; 63 g ai/ha, scale 0-100
  phytotoxicity rating AMARE: 70
[23]; 250 g ai/ha, scale 0-100
  phytotoxicity rating AMARE: 100

## COc1c(Cl)cc(F)c(-n2c(=O)cc(C(F)(F)F)n(C)c2=O)c1CC(C)(Cl)C(=O)OCC1CCCO1 (centres unmarked) [14-49]
[1]; Rate 63 g ai/ha
  Post-emerge Herbicidal Activity, phytotoxicity rating SETVI: 50
[1]; Rate 250 g ai/ha
  Post-emerge Herbicidal Activity, phytotoxicity rating SETVI: 100
[2]; Rate 63 g ai/ha
  Post-emerge Herbicidal Activity, phytotoxicity rating ECHCG: 100
[2]; Rate 250 g ai/ha
  Post-emerge Herbicidal Activity, phytotoxicity rating ECHCG: 100
[3]; Rate 63 g ai/ha
  Post-emerge Herbicidal Activity, phytotoxicity rating CASOB: 70
[3]; Rate 250 g ai/ha
  Post-emerge Herbicidal Activity, phytotoxicity rating CASOB: 95
[4]; Rate 63 g ai/ha
  Post-emerge Herbicidal Activity, phytotoxicity rating ABUTH: 100
[4]; Rate 250 g ai/ha
  Post-emerge Herbicidal Activity, phytotoxicity rating ABUTH: 100
[5]; Rate 63 g ai/ha
  Post-emerge Herbicidal Activity, phytotoxicity rating SORHA: 70
[5]; Rate 250 g ai/ha
  Post-emerge Herbicidal Activity, phytotoxicity rating SORHA: 95
[6]; Rate 63 g ai/ha
  Post-emerge Herbicidal Activity, phytotoxicity rating DIGSA: 70
[6]; Rate 250 g ai/ha
  Post-emerge Herbicidal Activity, phytotoxicity rating DIGSA: 95
[7]; Rate 63 g ai/ha
  Post-emerge Herbicidal Activity, phytotoxicity rating IPOHE: 100
[7]; Rate 250 g ai/ha
  Post-emerge Herbicidal Activity, phytotoxicity rating IPOHE: 100
[8]; Rate 63 g ai/ha
  Post-emerge Herbicidal Activity, phytotoxicity rating CHEAL: 100
[8]; Rate 250 g ai/ha
  Post-emerge Herbicidal Activity, phytotoxicity rating CHEAL: 100
[9]; Rate 63 g ai/ha
  Post-emerge Herbicidal Activity, phytotoxicity rating AMARE: 100
[9]; Rate 250 g ai/ha
  Post-emerge Herbicidal Activity, phytotoxicity rating AMARE: 100
[10]; Rate 63 g ai/ha
  Post-emerge Herbicidal Activity, phytotoxicity rating AMBEL: 100
[10]; Rate 250 g ai/ha
  Post-emerge Herbicidal Activity, phytotoxicity rating AMBEL: 100
[11]; Rate 63 g ai/ha
  Post-emerge phytotoxicity rating CORN (crop damage): 80
[11]; Rate 250 g ai/ha
  Post-emerge phytotoxicity rating CORN (crop damage): 100
[12]; Rate 63 g ai/ha
  Post-emerge phytotoxicity rating RICE (crop damage): 50
[12]; Rate 250 g ai/ha
  Post-emerge phytotoxicity rating RICE (crop damage): 95
[13]; 63 g ai/ha
  phytotoxicity rating CORN: 10
[13]; 250 g ai/ha
  phytotoxicity rating CORN: 95
[14]; 63 g ai/ha
  phytotoxicity rating RICE: 40
[14]; 250 g ai/ha
  phytotoxicity rating RICE: 95
[15]; 63 g ai/ha, rating scale 0-100
  phytotoxicity rating SETVI: 50
[15]; [24]
  phytotoxicity rating SETVI: 100
[16]; 63 g ai/ha, rating scale 0-100
  phytotoxicity rating ECHCG: 0
[16]; [24]
  phytotoxicity rating ECHCG: 100
[17]; 63 g ai/ha, rating scale 0-100
  phytotoxicity rating CASOB: 0
[17]; [24]
  phytotoxicity rating CASOB: 70
[18]; 63 g ai/ha, rating scale 0-100
  phytotoxicity rating ABUTH: 100
[18]; [24]
  phytotoxicity rating ABUTH: 100
[19]; 63 g ai/ha, rating scale 0-100
  phytotoxicity rating SORHA: 20
[19]; [24]
  phytotoxicity rating SORHA: 90
[20]; 63 g ai/ha, rating scale 0-100
  phytotoxicity rating DIGSA: 50
[20]; [24]
  phytotoxicity rating DIGSA: 100
[21]; 63 g ai/ha, rating scale 0-100
  phytotoxicity rating IPOHE: 50
[21]; [24]
  phytotoxicity rating IPOHE: 90
[22]; 63 g ai/ha, rating scale 0-100
  phytotoxicity rating CHEAL: 100
[22]; [24]
  phytotoxicity rating CHEAL: 100
[23]; 63 g ai/ha, rating scale 0-100
  phytotoxicity rating AMARE: 100
[23]; [24]
  phytotoxicity rating AMARE: 100
